In article PMC11992618, “Development of cyclopeptide inhibitors specifically disrupting FXR–coactivator interaction in the intestine as a novel therapeutic strategy for MASH” (Life Metabolism, 2025):

Tests used:
MCD diet-induced MASH = MCD diet-induced MASH mice, long-term model; assay type: in vivo, mouse; conditions: oral, 4 weeks, DC646 10 mg/kg, GUDCA 50 mg/kg
Experimental: For the long-term MASH model, 8- to 10-week-old male C57BL/6 J mice were fed with an MCS diet or MCD diet for 2 weeks, before the MCD models were administered with vehicle or GUDCA (50 mg/kg), OCA (30 mg/kg), and DC646 (10 mg/kg) for 4 weeks. The serum, liver, and intestine were collected 2 h after the final dosing. Male Fxr^△IE mice (8–10 weeks old) were fed with a GAN diet for 20 weeks and administered with vehicle or DC646 (10 mg/kg) from the 12th week for 8 weeks. The serum, liver, and intestine were collected 2 h after the final dosing.
The intestine and liver were frozen in liquid nitrogen and stored at −80°C. RNA was extracted, and complementary DNA was synthesized from 1 μg total RNA. RT-qPCR was performed on a Bio-Rad CFX384 Touch detection system (Bio-Rad). The primer sequences for RT-qPCR are shown in Supplementary Table S5. RNA levels were analyzed by 2-^ΔΔCt, normalized to 18S ribosomal RNA and expressed as fold change relative to the control group.
Hepatic TG and TC, and plasma ALT and AST levels were measured using commercial kits from Nanjing Jiancheng Bioengineering Institute according to the manufacturer’s instructions. To measure hepatic TG contents, liver tissues (~10 mg) were homogenized in 100 μL 1% TritonX-100 and centrifuged at 3000 rpm for 10 min. Supernatants were collected, and 2 μL samples were incubated with 200 μL reaction buffer at 37°C for 10 min. Hepatic TG or TC levels were read at 510 or 500 nm using a microplate reader (Versamax, Molecular Devices) and normalized using the protein concentration. To measure plasma ALT and AST levels, reaction buffer 1 and reaction buffer 2 were mixed at a ratio of 1:1, before adding 2 μL plasma sample and 200 μL mixed reaction buffer in a 96-well plate. The data were acquired using the kinetic mode with an interval of 30 s and 31 total reads at 340 nm using a microplate reader (Versamax, Molecular Devices).
Tissue specimens were fixed in 10% formalin for 12–24 h before being dehydrated and paraffin-embedded. The sections were stained with H&E. The NAS was calculated as a summary score including individual components of steatosis (0–3), lobular inflammation (0–3), and hepatocyte ballooning (0–2) for each liver section by a blinded liver pathologist, and the results were reviewed by a blinded hepatologist according to a previous protocol. To visualize liver fibrosis, paraffin-embedded tissue samples were stained with Sirius Red to characterize the collagen deposition. To visualize lipid accumulation and inflammation in the liver, frozen liver sections were stained with Oil Red O and F4/80, and images were acquired using a Leica DM6B laser microdissection system. At least three discontinuous liver sections were evaluated for each mouse.

[1] = molecular target: T1, human FXR alpha (hFXRα)-LBD / SRC2-3 peptide (Homo sapiens, UniProt Q96RI1); assay: AlphaScreen assay, recruitment of coactivator peptide SRC2-3 to His-hFXRα-LBD; assay type: biochemical
T1 construct: 100 nmol/L 6*His-hFXRα-LBD and 100 nmol/L biotinylated co-factor peptide
T1 sequence (Q96RI1 262-486 limits assumed): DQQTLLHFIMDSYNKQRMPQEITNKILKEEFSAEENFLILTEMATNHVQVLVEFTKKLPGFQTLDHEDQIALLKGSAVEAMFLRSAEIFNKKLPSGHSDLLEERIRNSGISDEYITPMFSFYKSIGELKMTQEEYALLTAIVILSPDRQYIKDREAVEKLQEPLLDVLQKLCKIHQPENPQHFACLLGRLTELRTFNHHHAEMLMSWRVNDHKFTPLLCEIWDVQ
Experimental: (§1) An AlphaScreen technology-based assay was performed according to the manufacturer’s instructions with a minor revision. Briefly, the experiment was conducted with compounds at the indicated concentrations, 100 nmol/L 6*His-hFXRα-LBD and 100 nmol/L biotinylated co-factor peptide in the buffer containing 50 mmol/L MOPS, 50 μmol/L CHAPS, 50 mmol/L NaF, and 0.1 mg/mL BSA, pH 7.4. The mixture was incubated with 50 μg/mL nickel acceptor beads and 50 μg/mL streptavidin donor beads in a 384-well plate under green light in the dark at room temperature, before conducting fluorescence measurement with excitation at 680 nm and emission at 550 nm on an Envision microplate analyzer (PE 2102-8340, PerkinElmer Life Sciences).

[2] = molecular target: T2, human FXR alpha (hFXRα)-LBD / NcoR2 peptide (Homo sapiens, UniProt Q96RI1); assay: AlphaScreen assay, recruitment of corepressor peptide NcoR2 to His-hFXRα-LBD; assay type: biochemical; conditions: compound alone incubated with His-hFXRα-LBD; read-out: EC50 in recruiting the NcoR2 peptide
T2 construct: 100 nmol/L 6*His-hFXRα-LBD and 100 nmol/L biotinylated co-factor peptide
T2 sequence (Q96RI1 262-486 limits assumed): T1 sequence (Q96RI1 262-486 limits assumed)
Experimental: as §1

C[C@H](CCC(=O)NCC(=O)O)[C@H]1CC[C@H]2[C@@H]3[C@@H](O)C[C@@H]4C[C@H](O)CC[C@]4(C)[C@H]3CC[C@]12C [GUDCA, glycoursodeoxycholic acid, reference compound]
Hepatic mRNA levels of inflammation-related genes (MCD diet-induced MASH): significantly decreased | Hepatic mRNA levels of lipid metabolism-related genes / hepatic lipid accumulation (MCD diet-induced MASH; OCA 30 mg/kg): only had minor effect

CC[C@H]1[C@@H](O)[C@@H]2[C@H](CC[C@]3(C)[C@@H]([C@H](C)CCC(=O)O)CC[C@@H]23)[C@@]2(C)CC[C@@H](O)C[C@@H]12 [OCA, reference compound]
Hepatic mRNA levels of lipid metabolism-related genes / hepatic lipid accumulation (MCD diet-induced MASH; OCA 30 mg/kg): markedly downregulated | Serum alanine aminotransferase (ALT) level (MCD diet-induced MASH; OCA 30 mg/kg): cannot improve

Ivermectin [reference compound]
EC50 ([1]; compound alone incubated with His-hFXRα-LBD, read-out: EC50 in recruiting the SRC2-3 peptide): 960 nM | EC50 [2]: 2190 nM

N,N'-((1^2S,1^4R,14^2S,14^4R,4S,17S)-5,13,18,26-tetraoxo-2^1,15^1-bis(triisopropylsilyl)-2^1H,15^1H-6,19-dioxa-12,25-diaza-1(4,2),14(2,4)-dimorpholina-2,15(4,3)-diindolacyclohexacosaphane-4,17-diyl)bis(1,1,1-trifluoromethanesulfonamide) [DC644]
Inhibition of SRC2-3 recruitment in the presence of CDCA (library screen) ([1]; DC644 at 10 μmol/L compared with GUDCA and GlyMCA at 50 μmol/L): more potent
